The values that follow come from ChEMBL document CHEMBL1134247, “Glycosidase inhibition by cyclic sulfonium compounds” (Bioorg Med Chem Lett, 2001).

Test [1] can be described thus: Inhibitory concentration of compound against Alpha-glucosidase from Baker's yeast; not active at less than 50% inhibition. Also on record: species or system Saccharomyces cerevisiae.
For test [2], the system named is beta-glucosidase (Prunus dulcis). The test is described as follows: Inhibitory concentration of compound against Beta-glucosidase from Almond;not active.
Test [3] in a line: Inhibitory concentration of compound against Alpha-glucosidase from rice; not active at less than 50% inhibition.
Test [4] is described as follows: Inhibitory concentration of compound against Alpha-mannosidase of Almond; not active. Further details: species or system Prunus dulcis; call rule not given here.
Test [5] in a line: Inhibitory concentration of compound (4:6 ratio of 10a/10b) against Alpha-glucosidase from Baker's yeast. Also on record: species or system Saccharomyces cerevisiae.
A short description of test [6]: Inhibitory concentration of compound (4:6 ratio of 10a/10b) against Alpha-glucosidase from rice.
A short description of test [7]: Inhibitory concentration of compound (10:1 ratio of 10a/10b) against Alpha-glucosidase from recombinant Saccharomyces cerevisiae.
Test [8] can be described thus: Inhibitory concentration of compound (4:6 ratio of 10a/10b) against Alpha-mannosidase of Almond. Also on record: species or system Prunus dulcis.
Test [9] in a line: Inhibitory concentration of compound (10:1 ratio of 10a/10b) against Alpha-glucosidase from Bacillus stearothermophilus. Further details: species or system Geobacillus stearothermophilus.
Test [10] can be described thus: Inhibitory concentration of compound (4:6 ratio of 10a/10b) against Alpha-glucosidase from recombinant Saccharomyces cerevisiae.
Test [11] in a line: Inhibitory concentration of compound (10:1 ratio of 10a/10b) against Alpha-glucosidase from rice.
The nature of test [12]: Inhibitory concentration of compound (10:1 ratio of 10a/10b) against Alpha-glucosidase from Baker's yeast. Also on record: species or system Saccharomyces cerevisiae.
Test [13] relates to beta-glucosidase (Prunus dulcis). The test can be described thus: Inhibitory concentration of compound (10:1 ratio of 10a/10b) against Beta-glucosidase from Almond; not active.
A short description of test [14]: Inhibitory concentration of compound (4:6 ratio of 10a/10b) against Alpha-glucosidase from Bacillus stearothermophilus. Also on record: species or system Geobacillus stearothermophilus.
The subject of test [15] is beta-glucosidase (Prunus dulcis). The test is described as follows: Inhibitory concentration of compound (4:6 ratio of 10a/10b) against Beta-Glucosidase from Almond; not active.
A short description of test [16]: Inhibitory concentration of compound (10:1 ratio of 10a/10b) against Alpha-mannosidase of Almond. Also on record: species or system Prunus dulcis.
Test [17] in a line: Inhibitory concentration of compound against Alpha-glucosidase from rice.
In test [18] the test system is alpha-galactosidase (Coffea arabica). The test can be described thus: Inhibitory effect towards Alpha-galactosidase at a concentration of 2 mM from coffee beans; no inhibitory effect.
The next test has as its target Beta-galactosidase (Escherichia coli, UniProt Q8VNN2). The test is described as follows: Inhibitory effect towards Beta-galactosidase at a concentration of 2 mM from E. coli; no inhibitory effect.
Test [19] can be described thus: Inhibitory concentration of compound against Alpha-glucosidase in Baker's yeast; not active at less than 50% inhibition. Also on record: species or system Saccharomyces cerevisiae.
A short description of test [20]: Inhibitory concentration of compound against Alpha-glucosidase in rice.
Another test relates to Prunus dulcis. The test can be described thus: (§1) Inhibitory concentration of compound against Alpha-mannosidase of Almond.
Test [21] can be described thus: Inhibitory concentration of compound against Alpha-glucosidase in Bacillus stearothermophilus. Also on record: species or system Geobacillus stearothermophilus.
A short description of test [22]: Inhibitory concentration of compound against Alpha-glucosidase in recombinant S. cerevisiae; not active. Further details: species or system Saccharomyces cerevisiae.
Test [23] can be described thus: as §1. Further details: species or system Prunus dulcis.
A short description of test [24]: Inhibitory concentration of compound against Alpha-glucosidase from B. stearothermophilus; not active at less than 50% inhibition. Also on record: species or system Geobacillus stearothermophilus.
Test [25] is described as follows: Inhibitory concentration of compound against Alpha-glucosidase from recombinant S. cerevisiae; not active at less than 50% inhibition. Further details: species or system Saccharomyces cerevisiae.

Beta-galactosidase, sequence (Q8VNN2 whole entry): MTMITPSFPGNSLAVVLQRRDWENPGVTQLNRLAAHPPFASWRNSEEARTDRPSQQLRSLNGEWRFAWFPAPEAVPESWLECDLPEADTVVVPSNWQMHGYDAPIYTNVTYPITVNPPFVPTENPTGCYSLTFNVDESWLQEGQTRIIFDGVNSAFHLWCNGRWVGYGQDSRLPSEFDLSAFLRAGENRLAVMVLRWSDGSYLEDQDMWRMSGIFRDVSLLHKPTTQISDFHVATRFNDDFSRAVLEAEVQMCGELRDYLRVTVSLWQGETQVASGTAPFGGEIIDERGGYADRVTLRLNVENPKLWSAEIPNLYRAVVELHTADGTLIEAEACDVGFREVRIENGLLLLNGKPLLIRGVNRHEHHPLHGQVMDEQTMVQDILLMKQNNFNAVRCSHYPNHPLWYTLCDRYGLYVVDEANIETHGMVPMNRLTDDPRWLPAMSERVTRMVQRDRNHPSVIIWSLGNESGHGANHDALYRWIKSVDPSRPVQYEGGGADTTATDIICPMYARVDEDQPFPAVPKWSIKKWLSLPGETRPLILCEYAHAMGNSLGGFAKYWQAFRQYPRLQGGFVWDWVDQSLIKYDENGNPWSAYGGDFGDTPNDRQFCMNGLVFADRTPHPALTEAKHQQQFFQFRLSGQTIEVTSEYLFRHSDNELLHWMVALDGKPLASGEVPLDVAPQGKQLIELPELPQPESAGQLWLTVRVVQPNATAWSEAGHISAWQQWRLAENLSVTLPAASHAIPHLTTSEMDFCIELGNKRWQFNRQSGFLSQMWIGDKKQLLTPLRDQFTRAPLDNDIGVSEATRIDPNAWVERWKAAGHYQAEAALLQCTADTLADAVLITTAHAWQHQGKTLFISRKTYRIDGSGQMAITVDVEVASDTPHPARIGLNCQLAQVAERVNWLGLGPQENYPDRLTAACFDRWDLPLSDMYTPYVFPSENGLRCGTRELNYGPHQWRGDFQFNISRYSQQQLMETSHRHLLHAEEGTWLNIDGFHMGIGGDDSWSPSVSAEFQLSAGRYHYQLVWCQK

One may read the IC50 as the point on the concentration scale where inhibition reaches its midpoint. As to `O=S(=O)([O-])O[C@@H](CO)[C@H](O)C[S+]1CCCC1`, the IC50 result in test [1], in test [2], in test [3] and in [4] was “Not Active” throughout.

On to `C[S+]1C[C@@H](O)[C@H](O)[C@H]1CO.[I-]` (stereo partly specified), for which the 50% inhibitory concentration (IC50) stood at 2.2 mM in test [5]; 2 mM in [6]; 490 µM in test [7]; 1.2 mM in [8]; 250 µM in test [9]; 2.1 mM in [10]. For the same compound, the IC50 in [11] is 410 µM; in [12], 360 µM; in test [13] it was “Not Active”; in test [14], 1.4 mM; in test [15], “Not Active”; in test [16] it was 2.1 mM.

On to `O=S(=O)([O-])O[C@H](CO)[C@@H](O)C[S+]1CCCC1`, for which the 50% inhibitory concentration (IC50) result in test [1] is “Not Active”; in test [17], 1000 µM; in [18], “No effect”; on Beta-galactosidase, “No effect”.

As for `O=S(=O)([O-])O[C@@H](CO)[C@H](O)C[S@+]1C[C@@H](O)[C@H](O)[C@@H]1CO`, the 50% inhibitory concentration (IC50) result in test [19] is “Not Active”; in test [20], 110 µM; in test [21] it was 2.5 mM; in [22], “Not Active”. In the test with Prunus dulcis, this compound displayed an IC40 of 2.1 mM.

For the compound `O=S(=O)([O-])O[C@H](CO)[C@@H](O)C[S@+]1C[C@@H](O)[C@H](O)[C@@H]1CO`, the IC50 entry in [1] is “Not Active”; in [23], 3.6 mM; in [24] it was “Not Active”; in test [17], 380 µM; in test [25] it was “Not Active”; at Beta-galactosidase, “No effect”.
